The record followed here is patent US5612329A (priority 1995, dated 1997).

One test deals with pBR322 DNA. It counts as biochemical. The conditions noted are these: 37° C., 18 hr, pH 7.4.
For a further test, the system named is HOP-62 cells. Kind of test: In vitro cytotoxicity / cell growth inhibition, non-small cell lung cancer. It counts as cell-based. The following applies: Homo sapiens; HOP-62, non-small cell lung cancer, 48 hr; read-out: log10 G150 (converted). The procedure:
(§1) The anti-proliferative activities of the aziridinylpolyamines obtained in Synthesis Examples 1-4 were assessed by determining log10 G150 values against human cancer cell lines using the screening strategy described by Boyd et al, Drug Devel. Res. 34:91-109 (1995).
(§2) More specifically, the compounds were tested at a minimum of five concentrations at 10-fold dilutions using a 48 hr continuous exposure protocol. Each cell line shown in Table 1 below was inoculated onto microtiter plates. After a pre-incubation period of 24-48 hr at 37° C., the test compounds were added, and the culture was incubated for an additional 48 hr at 37° C. Cell viability or cell growth end-point determinations were performed by fixation of the cells, followed by staining with sulforhodamine B (Monks et al, J. Natl. Cancer Inst., 83:757-766 (1991)).

The subject of the next test is NCl-H522 cells. The description is as above. The following applies: Homo sapiens, 48 hr, read-out: log10 G150 (converted). It counts as cell-based. The procedure: as §1, §2
The subject of a further test is HOP-92 cells. The test is described as above. The format is cell-based. The following applies: Homo sapiens; HOP-92, non-small cell lung cancer, 48 hr; read-out: log10 G150 (converted). On the procedure: as §1, §2
Another test relates to NCl-H226 cells. The test is described as above. It counts as cell-based. The conditions noted are these: Homo sapiens, 48 hr, read-out: log10 G150 (converted). The procedure:
as §1, §2

A further test has as its system NCl-H322M cells. Described as above. It counts as cell-based. The following applies: Homo sapiens, 48 hr, read-out: log10 G150 (converted). On the procedure:
as §1, §2

A further test has as its system EKVX cells. The test is described as above. The format is cell-based. The conditions noted are these: Homo sapiens, 48 hr, read-out: log10 G150 (converted). The procedure: as §1, §2
The subject of a further test is NCl-H460 cells. The description is as above. The format is cell-based. The conditions noted are these: Homo sapiens, 48 hr, read-out: log10 G150 (converted). The procedure:
as §1, §2

The test system of another test is NCl-H23 cells. The test is described as above. The following applies: Homo sapiens, 48 hr, read-out: log10 G150 (converted). The format is cell-based. The procedure: as §1, §2
In the next test the test system is A549/ATCC cells. The test is described as above. It counts as cell-based. The following applies: Homo sapiens, 48 hr, read-out: log10 G150 (converted). On the procedure:
as §1, §2

The next test concerns HCC-2998 cells. Briefly: In vitro cytotoxicity / cell growth inhibition, colon cancer. The format is cell-based. The following applies: Homo sapiens; HCC-2998, colon cancer, 48 hr; read-out: log10 G150 (converted). On the procedure:
as §1, §2

Another test concerns SW-620 cells. The description is as above. The conditions noted are these: Homo sapiens; SW-620, colon cancer, 48 hr; read-out: log10 G150 (converted). The format is cell-based. The procedure:
as §1, §2

The test system of the next test is COLO 205 cells. The test is described as above. The format is cell-based. The conditions noted are these: Homo sapiens; COLO 205, colon cancer, 48 hr; read-out: log10 G150 (converted). The procedure:
as §1, §2

For a further test, the system named is KM12 cells. The description is as above. The format is cell-based. The conditions noted are these: Homo sapiens, 48 hr, read-out: log10 G150 (converted). On the procedure: as §1, §2
A further test concerns HT29 cells. The description is as above. The format is cell-based. The conditions noted are these: Homo sapiens, HT-29, 48 hr, read-out: log10 G150 (converted). The procedure: as §1, §2
For a further test, the system named is RXF-393 cells. Kind of test: In vitro cytotoxicity / cell growth inhibition, renal cancer. It counts as cell-based. The following applies: Homo sapiens; RXF-393, renal cancer, 48 hr; read-out: log10 G150 (converted). On the procedure: as §1, §2
In another test the test system is SN12C cells. The test is described as above. It counts as cell-based. The following applies: Homo sapiens, 48 hr, read-out: log10 G150 (converted). On the procedure: as §1, §2
A further test has as its system UO-31 cells. The description is as above. The format is cell-based. The conditions noted are these: Homo sapiens; UO-31, renal cancer, 48 hr; read-out: log10 G150 (converted). The procedure: as §1, §2
The test system of the next test is ACHN cells. The test is described as above. The format is cell-based. The conditions noted are these: Homo sapiens, 48 hr, read-out: log10 G150 (converted). On the procedure:
as §1, §2

For a further test, the system named is 786-0 cells. Described as above. The format is cell-based. The following applies: Homo sapiens; 786-0, renal cancer, 48 hr; read-out: log10 G150 (converted). The procedure:
as §1, §2

In a further test the test system is CAKI-1 cells. Described as above. It counts as cell-based. The conditions noted are these: Homo sapiens; CAKI-1, renal cancer, 48 hr; read-out: log10 G150 (converted). On the procedure:
as §1, §2

In the next test the test system is A498 cells. The test is described as above. The conditions noted are these: Homo sapiens, 48 hr, read-out: log10 G150 (converted). It counts as cell-based. On the procedure:
as §1, §2

Another test concerns TK-10 cells. The test is described as above. It counts as cell-based. The conditions noted are these: Homo sapiens; TK-10, renal cancer, 48 hr; read-out: log10 G150 (converted). The procedure: as §1, §2

With `C(CCNCCCN1CC1)CNCCCN1CC1` [Synthesis Example 1, 1,12-Diaziridinyl-4,9-diazadodecane], the “concentration at which DNA was found to be cross-linked” value in the test on pBR322 DNA is not above 0.1 µM. Also, the GI50 with HOP-62 cells is 58.9 nM; with NCl-H522 cells, 427 nM; in the test on HOP-92 cells, 219 nM; in the test on NCl-H226 cells it was 724 nM; with NCl-H322M cells it was 4570 nM; in the test on EKVX cells, 3470 nM. Also, the GI50 was 363 nM with NCl-H460 cells; 263 nM with NCl-H23 cells; 891 nM with A549/ATCC cells; 1820 nM in the test with HCC-2998 cells; 2630 nM in the test on SW-620 cells; 407 nM in the test with COLO 205 cells. Besides, the GI50 in the test on KM12 cells was 15500 nM; in the test on HT29 cells, 3630 nM; in the test with RXF-393 cells it was 138 nM; in the test on SN12C cells, 135 nM; with UO-31 cells it was 575 nM; in the test with ACHN cells, 141 nM. Also, the GI50 in the test on 786-0 cells was 11.2 nM; in the test on CAKI-1 cells it was 18.6 nM; in the test on A498 cells, 1820 nM; in the test on TK-10 cells, 3240 nM.
